Measurements as given in patent publication US6787569B1, “Therapeutic guanidines” (Cambridge NeuroScience, Inc., priority 1994, dated 2004).
Counter-ions that a name gives are not always drawn.

Test system: depolarization-induced 3H-glutamate release from brain nerve terminals
Assay: Inhibition of 3H-glutamate release, high [K+] depolarization, rapid superfusion of synaptosomes
Format: biochemical
Conditions: rat brain synaptosomes; for % Inhibition of ^3H-Glu Rel @ 0.3 μM: 0.3 μM compound; for % Inhibition of ^3H-Glu Rel @ 3 μM: 3 μM compound; for % Inhibition of ^3H-Glu Rel @ 1 μM: 1 μM compound; for % Inhibition of ^3H-Glu Rel @ 0.1 μM: 0.1 μM compound

Row | Compound | % Inhibition of ^3H-Glu Rel @ 0.3 μM [%] | % Inhibition of ^3H-Glu Rel @ 1 μM [%] | also measured
1 | CCC(C)c1ccc(N(Cc2ccc(C(C)(C)C)cc2)C(=N)NN2C(C)COCC2C)cc1.Cl (stereo not drawn) [Example 82, N-(4-sec-Butylphenyl)-N-(4-tert-butylbenzyl)-N′-(3,5-dimethyl-4-morpholinyl)guanidine.HCl] | 60 | – | –
2 | N-(5-Acenaphthyl)-N′-((4-tert-butylphenyl)-(4-sec-butylphenyl)-N′-methylguanidine.HCl [Example 60] | – | – | % Inhibition of ^3H-Glu Rel @ 3 μM: 32%
3 | CS(=O)(=O)O.N=C(Nc1ccc(N=Nc2ccccc2)cc1)Nc1cccc(OCc2ccccc2)c1 [Example 140, N-(3-Benzyloxyphenyl)-N′-(4-phenylazophenyl)guanidine.mesylate] | 44 | – | –
4 | CC(C)(C)c1ccc(NC(=N)Nc2ccc(OCc3ccccc3)cc2)cc1.Cl [Example 93, N-(4-Benzyloxyphenyl)-N′-(4-tert-butylphenyl)guanidine.HCl] | 48 | 91 | –
5 | Cl.N=C(N)N(Cc1ccc(OCc2ccccc2)cc1)c1ccc(OCc2ccccc2)cc1 [Example 67, N-(4-Benzyloxyphenyl)-N-(4-benzyloxybenzyl)guanidine.HCl] | – | 36 | –
6 | CCCCOc1ccc(N(Cc2ccc(C(C)(C)C)cc2)C(=N)NC2CCNCC2)cc1.Cl [Example 77, N-(4-Butoxyphenyl)-N-(4-tert-butylbenzyl)-N′-(4-piperidinyl)guanidine.HCl] | 44 | – | –
7 | Br.N=C(Nc1ccc2c(c1)CCCC2)Nc1ccc2c(c1)CCCC2 [Example 111, N,N′-Bis-(6-tetralinyl)guanidine.HBr] | 61 | – | –
8 | CCCCOc1ccc(NC(=N)Nc2ccc(C(C)(C)C)cc2)cc1OCCCC.O=C(O)C(=O)O [Example 107, N-(3,4-Bis-butyloxyphenyl)-N′-(4-tert-butylphenyl)guanidine.oxalate] | 34 | – | –
9 | Br.N=C(Nc1ccc(Oc2ccccc2)cc1)Nc1ccc(Oc2ccccc2)cc1 [Example 138, N,N′-Bis(4-phenoxyphenyl)guanidine.HBr] | 57 | – | –
10 | Cl.N=C(N)N(Cc1cccc(OCc2ccccc2)c1)c1ccc2c3c(cccc13)CC2 [Example 68, N-(5-Acenaphthyl)-N-(3-benzyloxybenzyl)guanidine.HCl] | – | 76 | –
11 | CCCCCOc1cccc(N(Cc2ccc(C(C)(C)C)cc2)C(=N)N)c1.Cl [Example 64, N-(3-Pentoxyphenyl)-N-(4-tert-butylbenzyl)guanidine.HCl] | – | 41 | –
12 | CCCCCCc1ccc(N(Cc2ccc(C(C)(C)CCC)cc2)C(=N)Nc2ccccc2)cc1.Cl [Example 90, N-(4-Hexylphenyl)-N-(4-tert-hexylbenzyl)-N′-phenylguanidine.HCl] | 42 | – | –
13 | CCCCc1ccc(NC(=N)N(CCCC)c2ccc(CCCC)cc2)cc1.Cl [Example 105, N,N′-Bis-(4-butylphenyl)-N-butylguanidine.HCl] | 86 | – | % Inhibition of ^3H-Glu Rel @ 0.1 μM: 24%
14 | CN(C(=N)Nc1cccc(OCc2ccccc2)c1)c1cccc(OCc2ccccc2)c1.Cl [Example 141, N,N′-Bis(3-benzyloxyphenyl)-N′-methylguanidine.HCl] | 67 | – | –
15 | CCC(C)c1ccc(N(Cc2ccc(C(C)(C)C)cc2)C(=N)Nc2ccc(Cl)cc2)cc1.Cl (stereo not drawn) [Example 86, N-(4-sec-Butylphenyl)-N-(4-tert-butylbenzyl)-N′-(4-chlorophenyl)guanidine.HCl] | 45 | – | % Inhibition of ^3H-Glu Rel @ 0.1 μM: 16%
16 | Cl.N=C(N)N(Cc1ccc(I)cc1)c1ccc2c3c(cccc13)CC2 [Example 58, N-(5-Acenaphthyl)-N-(4-iodobenzyl)guanidine.HCl] | – | 43 | –
17 | CCCCOc1ccc(N(Cc2ccc(C(C)(C)C)cc2)C(=N)Nc2ccccc2)cc1.Cl [Example 87, N-(4-Butoxylphenyl)-N-(4-tert-butylbenzyl)-N′-(phenyl)guanidine.HCl] | 36 | – | –
18 | CCC(C)c1ccc(N(Cc2ccc(C(C)(C)C)cc2)C(=N)N(C)c2ccccc2)cc1.Cl (stereo not drawn) [Example 88, N-(4-sec-Butylphenyl)-N-(4-tert-butylbenzyl)-N′-(phenyl)-N′-methylguanidine.HCl] | 77 | – | –
19 | CCCC(Cc1ccccc1)c1cccc(NC(=N)Nc2ccc(C(C)(C)C)cc2)c1.CS(=O)(=O)O (stereo not drawn) [Example 100, N-(3-(1′-Benzylbutyl)phenyl)-N′-(4-tert-butylphenyl)guanidine.mesylate] | 20 | – | –
20 | CC(C)(C)c1ccc(COc2cccc(NC(=N)Nc3ccc(C(C)(C)C)cc3)c2)cc1.CS(=O)(=O)O [Example 99, N-(3-(4-tert-Butylbenzyloxy)phenyl)-N′-(4-tert-butylphenyl)guanidine.mesylate] | 20 | – | –
21 | N=C(N)N(Cc1ccc(OC(F)(F)F)cc1)c1ccc2c3c(cccc13)CC2 [Example 59, N-(5-Acenaphthyl)-N-(4-trifluaromethoxybenzyl)guanidine.HCl] | – | 44 | –
22 | Br.CCCCOc1cc(NC(=N)Nc2ccc(OC)c(OCCCC)c2)ccc1OC [Example 109, N,N′-Bis-((3-butoxy-4-methoxy)phenyl)guanidine.HBr] | 86 | – | –

Row | Compound | % Inhibition of ^3H-Glu Rel @ 0.3 μM [%] | % Inhibition of ^3H-Glu Rel @ 1 μM [%] | also measured
23 | Br.CCC(C)c1cccc(NC(=N)Nc2cccc(C(C)CC)c2)c1 (stereo not drawn) [Example 34, N,N′-Bis-(3-sec-butylphenyl)guanidine.HBr] | – | 63 | –
24 | Br.CN(C(=N)Nc1ccc(C(C)(C)C)cc1)c1ccc(C(C)(C)C)cc1 [Example 35, N,N′-Bis(4-tert-butylphenyl)-N-methylguanidine.HBr] | – | 61 | –
25 | CC(C)(C)c1ccc(CN(C(=N)N)c2cccc(C(C)(C)C)c2)cc1.Cl [Example 63, N-(3-tert-Butylphenyl)-N-(4-tert-butylbenzyl)guanidine.HCl] | – | 40 | –
26 | N=C(Nc1ccc(OCc2ccccc2)cc1)Nc1ccc(SCc2ccccc2)cc1 [N-(4-benzyloxyphenyl)-N′-(4-benzylthiophenyl)guanidine] | 81 | – | –
27 | Cl.N=C(N)N(Cc1ccc(OCc2ccccc2)cc1)c1ccc2c3c(cccc13)CC2 [Example 65, N-(5-Acenaphthyl)-N-(4-benzyloxybenzyl)guanidine.HCl] | – | 42 | –
28 | CCC(C)c1ccc(N(Cc2ccc(OCc3ccccc3)cc2)C(=N)N)cc1.Cl (stereo not drawn) [Example 66, N-(4-sec-Butylphenyl)-N-(4-benzyloxybenzyl)guanidine.HCl] | – | 54 | –
29 | CS(=O)(=O)O.N=C(Nc1ccc2c3c(cccc13)CC2)N1CCCc2ccccc21 [Example 7, N-(5-Acenaphthyl)-N′-(1,2,3,4-tetrahydroquinolinyl)guanidine.mesylate] | – | 20 | % Inhibition of ^3H-Glu Rel @ 3 μM: 16%
30 | CCC(C)c1ccc(N(Cc2ccc(C(C)(C)C)cc2)C(=N)Nc2ccccc2)cc1.Cl (stereo not drawn) [Example 85, N-(4-sec-Butylphenyl)-N-(4-tert-butylbenzyl)-N′-(phenyl)guanidine.HCl] | 55 | 100 | –
31 | CN(C(=N)Nc1cccc(OCc2ccccc2)c1)c1ccc(OCc2ccccc2)cc1 [N-(3-benzyloxyphenyl)-N′-(4-benzyloxyphenyl)-N′-methylguanidine] | 55 | – | –
32 | Br.CC(C)(C)c1cccc(NC(=N)Nc2cccc(C(C)(C)C)c2)c1 [Example 31, N,N′-Di-(3-tert-butylphenyl)guanidine.HBr] | – | 24 | –
33 | CCC(C)c1ccc(N(Cc2ccc(C(C)(C)C)cc2)C(=N)N2CCC(Cc3ccccc3)CC2)cc1.CS(=O)(=O)O (stereo not drawn) [Example 78] | 22 | – | –
34 | Cl.N=C(N)N(Cc1cccc(Oc2ccccc2)c1)c1ccc2c3c(cccc13)CC2 [Example 53, N-(5-Acenaphthyl)-N-(3-phenoxybenzyl)guanidine.HCl] | – | 37 | –
35 | Br.N=C(Nc1cccc(-c2ccccc2)c1)Nc1cccc(-c2ccccc2)c1 [Example 30, N,N′-Bis(3-biphenyl)guanidine.HBr] | – | 25 | –
36 | Br.CN(C(=N)N(C)c1ccc(C(C)(C)C)cc1)c1ccc(C(C)(C)C)cc1 [Example 36, N,N′-Bis(4-tert-butylphenyl)-N,N′-methylguanidine.HBr] | – | – | % Inhibition of ^3H-Glu Rel @ 1 μM (1 µM): 67%
37 | CN(C(=N)Nc1ccc(OCc2ccccc2)cc1)c1ccc(OCc2ccccc2)cc1.CS(=O)(=O)O [Example 132, N,N′-Bis(4-benzyloxyphenyl)-N′-methylguanidine.mesylate] | 22 | – | –
38 | CCCCCN(C(=N)Nc1ccc(C(C)CC)cc1)c1ccc(C(C)CC)cc1.Cl (stereo not drawn) [Example 46, N,N′-(sec-Butylphenyl)-N′-(n-pentyl)guanidine.HCl] | 65 | 100 | –
39 | Cl.N=C(Nc1ccc2c3c(cccc13)CC2)NC(Cc1ccccc1)c1ccccc1 (stereo not drawn) [Example 41, N-(5-Acenaphthyl)-N′-(1,2-diphenylethyl)guanidine.HCl] | – | 52 | –
40 | CCOc1ccc(Cc2cccc(CCNC(=N)Nc3ccc(C(C)(C)C)cc3)c2)cc1.CS(=O)(=O)O [Example 97, N-(3-(1-(4′-Ethoxy)benzyl)phenethyl)-N′-(4-tert-butylphenyl)guanidine.mesylate] | 31 | – | –
41 | CC(C)(C)c1ccc(CN(C(=N)N)c2cccc3ccccc23)cc1.Cl [Example 47, N-(1-Naphthyl)-N-4(tert-butylbenzyl)guanidine.HCl] | – | 40 | –
42 | CN(C(=N)Nc1ccc(OCc2ccccc2)cc1)c1ccc(C(C)(C)C)cc1.CS(=O)(=O)O [Example 98, N-(4-Benzyloxyphenyl)-N′-methyl-N′-(4-tert-butylphenyl)guanidine.mesylate] | 28 | – | –
43 | CCC(C)c1ccc(N(Cc2ccc(C(C)(C)C)cc2)C(=N)Nc2ccc(OCc3ccccc3)cc2)cc1.CS(=O)(=O)O (stereo not drawn) [Example 91, N-(4-sec-Butylphenyl)-N-(4-tert-butylbenzyl)-N′-(4-benzyloxyphenyl)guanidine.mesylate] | 49 | – | –
44 | N-(4-sec-Butylphenyl)-N-(4-tert-butylbenzyl)-N′-piperidinylguanidine.HCl [Example 74] | 21 | 100 | –
